# Test results as given in US4275072A, “2,6-Dichlorophenyl-substituted amino-imidazole derivatives and use as hypertensive agents” (priority 1979, dated 1981).
# Columns and labels:
# [1] = test system: Sprague-Dawley male rats; assay: diuretic effect: urine volume in rats after intraperitoneal injection; type: in vivo; conditions: for Mean Cumulative Volume of Urine, 0-1 hours / Mean Cumulative Volume of Urine, 0-2 hours / Mean Cumulative Volume of Urine, 0-3 hours / Mean Cumulative Volume of Urine, 0-4 hours / Mean Cumulative Volume of Urine, 0-5 hours: 2 mg/kg intraperitoneally, 6 rats, 10 ml water by gastric tube; for Mean Cumulative Volume of Urine, 0-1 hours: saline control 1.1; for Mean Cumulative Volume of Urine, 0-2 hours: saline control 7.2; for Mean Cumulative Volume of Urine, 0-3 hours: saline control 11.4; for Mean Cumulative Volume of Urine, 0-4 hours / Mean Cumulative Volume of Urine, 0-5 hours: saline control 13.5; for diuretic activity: in words
# Description: The diuretic effect of the intermediates may be studied by injecting the compounds intraperitoneally to adult Sprague-Dawley male rats after an overnight fast. Simultaneously, 10 ml of water is fed to each rat through a gastric tube.
# [2] = in words; prior art; cited from earlier work
# [3] = test system: Okamoto-Aoki spontaneous hypertensive rats (SHR); assay: blood pressure in unanesthetized spontaneous hypertensive rats (SHR), peroral; type: in vivo; conditions: 100 mg/kg p.o.
# Description: (§1) In a further test unanesthetized Okamoto-Aoki spontaneous hypertensive rats (SHR) are used. The test derivative is administered perorally by way of a tube into the stomach. The blood pressure is measured from the tail using an indirect bloodless method.
# [4] = preliminary tests of further pharmacological activities; conditions: in words
# [5] = anti-hypertensive activity in mammals, overall observations; conditions: in words; for anti-hypertensive activity: in mammals
# Description: The anti-hypertensive properties of the imidazole derivatives of the invention may be shown by using anesthetized Sprague-Dawley rats of normal weight. The test animals are first anesthetized with urethane. After this the femoral artery is connected by way of a polyethylene tube with a blood pressure transducer. The test substance is injected into the femoral vein. The blood pressure and the pulse frequency are registered with a recorder.
# as §1
# [6] = test system: gastric ulcers; assay: anti-ulcer activity: gastric ulcers induced by anti-inflammatory agents (e.g., indomethacin); type: in vivo; conditions: i.p., ulcers counted after three hours, fasted female rats
# [7] = test system: anesthetized Sprague-Dawley rats; assay: blood pressure and pulse frequency in anesthetized Sprague-Dawley rats, i.v.; type: in vivo
# Description: The test animals are first anesthetized with urethane. […] The test substance is injected into the femoral vein.
# [8] = test system: rats; assay: toxicity (LD50) in rats; type: in vivo; conditions: in words
smiles,measurement,setting,value
"CCOC(=O)Cc1cn(-c2c(Cl)cccc2Cl)c(N)n1 [Compound Ib, 4-[1-(2',6'-dichlorophenyl)-2-amino]-imidazoleacetic acid ethyl ester]","Mean Cumulative Volume of Urine, 0-1 hours",[1],2.3 mL
same,"Mean Cumulative Volume of Urine, 0-2 hours",[1],10.9 mL
same,"Mean Cumulative Volume of Urine, 0-3 hours",[1],12.3 mL
same,"Mean Cumulative Volume of Urine, 0-4 hours",[1],14.5 mL
same,"Mean Cumulative Volume of Urine, 0-5 hours",[1],15.7 mL
"Nc1nc(CC(=O)O)cn1-c1c(Cl)cccc1Cl [Compound Ia, 4-[1-(2',6'-dichlorophenyl)-2-amino]-imidazoleacetic acid]","Mean Cumulative Volume of Urine, 0-1 hours",[1],2.6 mL
same,"Mean Cumulative Volume of Urine, 0-2 hours",[1],10.2 mL
same,"Mean Cumulative Volume of Urine, 0-3 hours",[1],13.9 mL
same,"Mean Cumulative Volume of Urine, 0-4 hours",[1],14.7 mL
same,"Mean Cumulative Volume of Urine, 0-5 hours",[1],16.4 mL
same,diuretic activity,[1],significant diuretic activity
"O=C(O)Cc1c[nH]c(Nc2c(Cl)cccc2Cl)n1 [Compound IIa, 4-[2-(2',6'-dichloroanilino)]-imidazoleacetic acid]","Mean Cumulative Volume of Urine, 0-1 hours",[1],1.3 mL
same,"Mean Cumulative Volume of Urine, 0-2 hours",[1],8.1 mL
same,"Mean Cumulative Volume of Urine, 0-3 hours",[1],12.9 mL
same,"Mean Cumulative Volume of Urine, 0-4 hours",[1],14.3 mL
same,"Mean Cumulative Volume of Urine, 0-5 hours",[1],14.9 mL
same,diuretic activity,[1],significant diuretic activity
"Clc1cccc(Cl)c1N=C1NCCN1 [clonidine, 2-(2,6-dichloroanilino)-2-imidazoline]",temporary rise of the blood pressure at the beginning of administration,[2],temporary rise in blood pressure at the beginning of administration
"Cc1cn(-c2c(Cl)cccc2Cl)c(N)n1 [compound I, 1-(2',6'-dichlorophenyl)-2-amino-4-methyl-imidazole]",Average reduction of blood pressure,[3],35%
same,analgesic activity,[4],analgesic
same,anti-arrhythmic activity,[4],anti-arrhythmic activity
same,anti-convulsant activity,[4],anti-convulsant
same,anti-depressant activity,[4],anti-depressant
same,anti-inflammatory activity,[4],anti-inflammatory
same,anti-ulcer activity,[4],anti-ulcer
same,anti-hypertensive activity,[5],excellent anti-hypertensive activity
same,"reduction of the blood pressure, character and duration",[5],smooth and of relatively long duration
same,temporary rise of the blood pressure at the beginning of the administration,[5],No temporary rise of the blood pressure is observed
same,minimal effective dose,"[6]; Rattus norvegicus, ip, 3 h, doses as small as, read-out: smallest dose effective in reducing the number of ulcers",1 mg/kg
same,dose that prevents the formation of gastric ulcers,[6],~20 mg/kg
same,Average reduction of blood pressure,[7]; 10 mg/kg i.v.,25%
same,Average reduction of pulse frequency,[7]; 10 mg/kg i.v.,20%
same,Average reduction of blood pressure,"[7]; 3,3 mg/kg i.v.",20%
"Cc1c[nH]c(Nc2c(Cl)cccc2Cl)n1 [compound II, 2-(2',6'-dichloroanilino)-4-methyl-imidazole]",analgesic activity,[4],analgesic
same,anti-arrhythmic activity,[4],anti-arrhythmic activity
same,anti-convulsant activity,[4],anti-convulsant
same,anti-depressant activity,[4],anti-depressant
same,anti-inflammatory activity,[4],anti-inflammatory
same,anti-ulcer activity,[4],anti-ulcer
same,anti-hypertensive activity,[5],excellent anti-hypertensive activity
same,"reduction of the blood pressure, character and duration",[5],smooth and of relatively long duration
same,temporary rise of the blood pressure at the beginning of the administration,[5],No temporary rise of the blood pressure is observed
same,toxicity,[8],low toxicity
same,Average reduction of blood pressure,[7]; 10 mg/kg i.v.,25%
"CCOC(=O)Cc1c[nH]c(Nc2c(Cl)cccc2Cl)n1 [Compound IIb, 4-[2-(2',6'-dichloroanilino)]-imidazoleacetic acid ethyl ester]","Mean Cumulative Volume of Urine, 0-1 hours",[1],3.4 mL
same,"Mean Cumulative Volume of Urine, 0-2 hours",[1],9.5 mL
same,"Mean Cumulative Volume of Urine, 0-3 hours",[1],13.4 mL
same,"Mean Cumulative Volume of Urine, 0-4 hours",[1],14.4 mL
same,"Mean Cumulative Volume of Urine, 0-5 hours",[1],14.4 mL
